# Laboratory results taken from patent US20230356105A1, “TETRAAZADODECANE BASED CHELATING AGENTS FOR SEPARATION OF RARE EARTH ELEMENTS AND METHOD THEREFOR” (Ustav Organicke Chemie a Biochemie AV CR V.V.I., priority 2020, published 2023).
# Values joined by “and” are separate entries in the source; they are usually repeats but may differ in a detail not shown here. Identical values can stand only once.
# Key:
# Format in all cases: physicochemical
# [1] = Separation of Ho/Er mixture using L1 with repeated dissolution of the precipitate with heat (Example 12); details: for Precipitate concentration [mM] Ho: dissolved to 200 μL
# Method: The experiment was conducted according to Example 11), the difference being that instead of dissolving the precipitate in acid and neutralizing by addition of base, 200 μL of water were added to the precipitate and the suspension was stirred at 80° C. for 24 hours. Full dissolution of the precipitate was not achieved during this process, but a saturated solution was formed. After cooling to room temperature, the mixtures were processed as though the precipitation had occurred normally. The resulting absolute concentrations of both metals in the supernatants and precipitates, as well as calculated values of the separation factor Er/Ho according to the formula from Example 11) are summarized in Table 6. […] Repetition of the cycles in this experiment also led to a higher degree of enrichment for one of the rare-earth elements. The average separation factor value was 2.97.
# [2] = Separation of binary mixture of rare-earth metals by precipitation using L1, MOPS pH 8.5 (Example 8); details: supernatant
# Method: Analogous to Example 7), the well plate was then centrifuged and concentrations of the metals were determined using ICP-OES. The resulting concentrations of both metals in the supernatants and their ratios are summarized in […]
# [3] = Separation of Nd/Pr/Tb/Dy mixture by precipitation using L5 (Example 21); details: for precipitate after 20 hrs: dissolved to 500 μL; for precipitate after 20 hrs composition / solution after 20 hrs composition: percent molar
# Method: Stock solutions were pipetted into 4 mL glass vials to prepare reaction mixtures with concentrations as follows: • 1. 38.5 mM (1.1 eq) chelator L5 • 2. 35 mM (1 eq) total LnCl3 content (from a stock solution containing a mixture of Ln=Nd, Pr, Tb, and Dy, in a ratio of 3.3:1:1:1, Nd:Pr:Tb:Dy) • 3. 1750 mM (50 eq) MOPS pH=7
# The total reaction volume was 3.2 mL. A PTFE-coated stir bar was added to this vial, and the vial was capped and stirred with the temperature maintained at 40° C. by use of an aluminium heating block on a magnetic stirrer. After 20 hours, a 500 μL aliquot of the reaction mixture was taken from the vial. This was centrifuged in a 2 mL plastic Eppendorf centrifuge vial, and the supernatant was carefully pipetted from this and transferred to a new set of tubes. The precipitate was dissolved by addition of 500 μL 1 M HCl, and the absolute concentration of Nd, Pr, Tb, and Dy in both the supernatants and precipitates was determined by ICP-OES.
# The percent molar composition of each phase is also provided, showing the minimal selectivity in precipitation under these conditions.
structure (smiles),measurement,setting,value
"O=C(O)CN1CCN(CC(=O)O)CCN(Cc2ccccc2)CCN(CC(=O)O)CC1 [L1, 2,2′,2″-(10-benzyl-1,4,7,10-tetraazacyclododecane-1,4,7-triyl)triacetic Acid]",average separation factor value Er/Ho,[1]; all samples,2.97
same,Separation factor Er/Ho,"[1]; group A, 1st cycle",2.89 and 2.84 and 3.04
same,Supernatant concentration [mM] Ho,"[1]; group A, 1st cycle",0.36 mM and 0.33 mM
same,Precipitate concentration [mM] Ho,"[1]; group A, 1st cycle",4.53 mM and 4.46 mM and 4.68 mM
same,Precipitate concentration [mM] Ho,"[1]; group A, 1st cycle, mean",4.56 mM
same,Supernatant concentration [mM] Ho,"[1]; group A, 1st cycle, mean",0.35 mM
same,Separation factor Er/Ho,"[1]; group B, 2nd cycle",2.69 and 2.94 and 3.69
same,Supernatant concentration [mM] Ho,"[1]; group B, 2nd cycle (water, 80° C., 24 hours)",0.27 mM and 0.32 mM and 0.25 mM
same,Supernatant concentration [mM] Ho,"[1]; group B, 2nd cycle (water, 80° C., 24 hours), mean",0.28 mM
same,Precipitate concentration [mM] Ho,"[1]; group B, 2nd cycle",3.89 mM and 3.98 mM and 3.64 mM
same,Precipitate concentration [mM] Ho,"[1]; group B, 2nd cycle, mean",3.84 mM
same,Separation factor Er/Ho,"[1]; group C, 3rd cycle",2.38 and 2.79 and 3.47
same,Supernatant concentration [mM] Ho,"[1]; group C, 3rd cycle (water, 80° C., 24 hours)",0.39 mM and 0.37 mM and 0.27 mM
same,Supernatant concentration [mM] Ho,"[1]; group C, 3rd cycle (water, 80° C., 24 hours), mean",0.34 mM
same,Precipitate concentration [mM] Ho,"[1]; group C, 3rd cycle",3.16 mM and 3.13 mM and 3.75 mM
same,Precipitate concentration [mM] Ho,"[1]; group C, 3rd cycle, mean",3.35 mM
same,[mM] M1,"[2]; M1=Ce, M2=Er",0.280 mM
same,[mM] M1,"[2]; M1=Ce, M2=Tm",0.425 mM
same,[mM] Tm,"[2]; M1=Ce, M2=Tm",2.035 mM
same,M1/Er,[2]; M1=Ce,0.51
same,[mM] M1,"[2]; M1=Dy, M2=Er",0.338 mM
same,[mM] M1,"[2]; M1=Dy, M2=Tm",0.362 mM
same,[mM] Tm,"[2]; M1=Dy, M2=Tm",2.382 mM
same,M1/Er,[2]; M1=Dy,0.34
same,[mM] M1,"[2]; M1=Er, M2=Er",4.969 mM
same,[mM] M1,"[2]; M1=Er, M2=Tm",2.759 mM
same,[mM] Tm,"[2]; M1=Er, M2=Tm",3.368 mM
same,M1/Er,[2]; M1=Er,1.00
same,[mM] Er,"[2]; M1=Eu, M2=Er",0.680 mM
same,[mM] M1,"[2]; M1=Eu, M2=Er",0.244 mM
same,[mM] M1,"[2]; M1=Eu, M2=Tm",0.244 mM
same,[mM] Tm,"[2]; M1=Eu, M2=Tm",2.091 mM
same,M1/Er,[2]; M1=Eu,0.36
same,[mM] Er,"[2]; M1=Gd, M2=Er",0.972 mM
same,[mM] M1,"[2]; M1=Gd, M2=Er",0.402 mM
same,[mM] M1,"[2]; M1=Gd, M2=Tm",0.254 mM
same,[mM] Tm,"[2]; M1=Gd, M2=Tm",1.814 mM
same,M1/Er,[2]; M1=Gd,0.41
same,[mM] M1,"[2]; M1=Ho, M2=Er",0.496 mM
same,[mM] M1,"[2]; M1=Ho, M2=Tm",0.521 mM
same,[mM] Tm,"[2]; M1=Ho, M2=Tm",2.329 mM
same,M1/Er,[2]; M1=Ho,0.60
same,[mM] M1,"[2]; M1=La, M2=Er",0.368 mM
same,[mM] M1,"[2]; M1=La, M2=Tm",0.616 mM
same,[mM] Tm,"[2]; M1=La, M2=Tm",2.425 mM
same,M1/Er,[2]; M1=La,0.57
same,[mM] M1,"[2]; M1=Lu, M2=Er",7.607 mM
same,[mM] M1,"[2]; M1=Lu, M2=Tm",7.337 mM
same,[mM] Tm,"[2]; M1=Lu, M2=Tm",4.588 mM
same,M1/Er,[2]; M1=Lu,1.67
same,[mM] Er,"[2]; M1=Nd, M2=Er",0.692 mM
same,[mM] M1,"[2]; M1=Nd, M2=Er",0.280 mM
same,[mM] M1,"[2]; M1=Nd, M2=Tm",0.315 mM
same,[mM] Tm,"[2]; M1=Nd, M2=Tm",1.892 mM
same,M1/Er,[2]; M1=Nd,0.40
same,[mM] M1,"[2]; M1=Pr, M2=Er",0.210 mM
same,[mM] M1,"[2]; M1=Pr, M2=Tm",0.298 mM
same,[mM] Tm,"[2]; M1=Pr, M2=Tm",2.016 mM
same,M1/Er,[2]; M1=Pr,0.32
same,[mM] M1,"[2]; M1=Sc, M2=Er",5.191 mM
same,[mM] M1,"[2]; M1=Sc, M2=Tm",5.087 mM
same,[mM] Tm,"[2]; M1=Sc, M2=Tm",4.448 mM
same,M1/Er,[2]; M1=Sc,1.16
same,[mM] Er,"[2]; M1=Sm, M2=Er",0.734 mM
same,[mM] M1,"[2]; M1=Sm, M2=Er",0.197 mM
same,[mM] M1,"[2]; M1=Sm, M2=Tm",0.218 mM
same,[mM] Tm,"[2]; M1=Sm, M2=Tm",2.090 mM
same,M1/Er,[2]; M1=Sm,0.27
same,[mM] M1,"[2]; M1=Tb, M2=Er",0.225 mM
same,[mM] M1,"[2]; M1=Tb, M2=Tm",0.225 mM
same,[mM] Tm,"[2]; M1=Tb, M2=Tm",2.342 mM
same,M1/Er,[2]; M1=Tb,0.28
same,[mM] M1,"[2]; M1=Tm, M2=Er",3.971 mM
same,[mM] M1,"[2]; M1=Tm, M2=Tm",4.779 mM
same,[mM] Tm,"[2]; M1=Tm, M2=Tm",4.779 mM
same,M1/Er,[2]; M1=Tm,1.73
same,[mM] M1,"[2]; M1=Y, M2=Er",0.503 mM
same,[mM] M1,"[2]; M1=Y, M2=Tm",0.480 mM
same,[mM] Tm,"[2]; M1=Y, M2=Tm",2.367 mM
same,M1/Er,[2]; M1=Y,0.56
same,[mM] M1,"[2]; M1=Yb, M2=Er",5.400 mM
same,[mM] M1,"[2]; M1=Yb, M2=Tm",5.477 mM
same,[mM] Tm,"[2]; M1=Yb, M2=Tm",4.598 mM
same,M1/Er,[2]; M1=Yb,1.25
"O=C(O)CN1CCN(CC(=O)O)CCN(Cc2cccc3ccccc23)CCN(CC(=O)O)CC1 [L5, 2,2′,2″-(10-(naphthalene-1-ylmethyl)-1,4,7,10-tetraazacyklododekane-1,4,7-triyl)triacetic acid]",solution after 20 hrs,[3]; Ln=Dy,0.58 mM
same,precipitate after 20 hrs,[3]; Ln=Dy,4.69 mM
same,precipitate after 20 hrs composition,[3]; Ln=Dy,14.9%
same,solution after 20 hrs composition,[3]; Ln=Dy,17.1%
same,solution after 20 hrs,[3]; Ln=Nd,1.85 mM
same,precipitate after 20 hrs,[3]; Ln=Nd,16.68 mM
same,precipitate after 20 hrs composition,[3]; Ln=Nd,53.0%
same,solution after 20 hrs composition,[3]; Ln=Nd,54.3%
same,solution after 20 hrs,[3]; Ln=Pr,0.47 mM
same,precipitate after 20 hrs,[3]; Ln=Pr,4.85 mM
same,precipitate after 20 hrs composition,[3]; Ln=Pr,15.4%
same,solution after 20 hrs composition,[3]; Ln=Pr,13.9%
same,solution after 20 hrs,[3]; Ln=Tb,0.50 mM
same,precipitate after 20 hrs,[3]; Ln=Tb,5.28 mM
same,precipitate after 20 hrs composition,[3]; Ln=Tb,16.8%
same,solution after 20 hrs composition,[3]; Ln=Tb,14.7%
